Test: HLB value of emulsifiers
Format: physicochemical
Conditions: emulsifier raw material
Experimental: The HLB value (Hydrophile Lipophile Balance) refers to a value showing hydrophilicity of a surfactant. This is an index representing the balance of the lipophilicity and hydrophilicity of the object compound, which is determined as a relative value to an HLB value for a hypothetical compound, generally an ethylene oxide adduct-type nonionic surfactant having an infinite long hydrophilic group attached to a lipophilic group and having the maximum hydrophilicity, which is set to 20, and to an HLB value for a lipophilic compound having no hydrophilic group, which is set to 0.

Compound	HLB
CCCCCCCC/C=C\CCCCCCCC(=O)OCC(O)CO (stereo not drawn) [Glycerol oleate, glycerol monooleate]	4.3
decaglycerol laurate [Decaglycerol monolaurate]	15.0
diglycerol monooleate	7.4

From patent US7947305B2, “Fat-soluble drug composition” (Riken Vitamin Co., Ltd., priority 2005, dated 2011)
